Reference: PMC5431342, “Discovery of an enzyme and substrate selective inhibitor of ADAM10 using an exosite-binding glycosylated substrate” (Scientific Reports, 2016)

How the values were obtained:
BT474 cells = assay: Cell toxicity study (CellTiter-Glo), BT474; assay type: cell-based; conditions: 72 h
Description: (§1) Test compounds were solubilized in 100% DMSO and added to polypropylene 384 well plates (Greiner cat# 781280). 1,250 of BT474 or HEK293 cells were plated in 384-well plates in 8 µL of serum-free media (HybriCare for BT474, EMEM for HEK293). Test compounds and pharmacological assay control (lapatinib) were prepared as 10-point, 1:3 serial dilutions starting at 10 mM, then added to the cells using the pin tool mounted on Biomek NX^P. Plates were incubated for 72 h at 37 °C, 5% CO2 and 95% RH. After incubation, 8 µL of CellTiter-Glo® (Promega cat# G7570) was added to each well, and incubated for 15 min at room temperature. Luminescence was recorded using a Biotek Synergy H4 multimode microplate reader. Viability was expressed as a percentage relative to wells containing media only (0%) and wells containing cells treated with DMSO only (100%). Three parameters were calculated on a per-plate basis: (a) the signal-to-background ratio (S/B); (b) the coefficient for variation [CV; CV = (standard deviation/mean) × 100)] for all compound test wells; and (c) the Z′-factor. IC50 values were calculated by fitting normalized data to sigmoidal log vs. response equation utilizing non-linear regression analysis from GraphPad Prizm 6.

ADAM17 = target: T1, ADAM17 (Homo sapiens, UniProt P78536); assay: HPLC-based ADAM17 assay using glycosylated substrate; assay type: biochemical
T1 construct: purchased R&D Systems 930-ADB
Description: Both assays followed the same general protocol. 30 µL of 3x enzyme solution (30 nM) in assay buffer (10 mM Hepes, 0.001% Brij-35, pH 7.5) were added to solid bottom black 384 plates. Next, 30 µL of 3x test compounds and pharmacological controls were added to corresponding wells. After 30 min incubation at RT, the reactions were started by addition of 30 µL of 3x solution of glycosylated substrate (30 µM). Reactions were incubated at RT for 2 h and then quenched with 10 µL of 500 µM EDTA. Analytical RP-HPLC was performed on a 1260 Infinity Agilent Technologies liquid chromatograph equipped with an Agilent Poroshell 120 column. Eluents were 0.1% TFA in water (A) and 0.1% TFA in acetonitrile (B). The elution gradient was 0–98% B in 15 min with a flow rate of 1.0 mL/min. Detection was at λ = 214, 360, and 460 nm.

[1] = system: shedding of HER2 from the surface of BT474 cells; assay: HER2 shedding inhibition (AlphaLISA soluble HER2); assay type: cell-based; conditions: Homo sapiens, BT-474, 48 h
Description: To determine the effect of CID 3117694 on the release of HER2, an AlphaLISA soluble HER2 assay kit was utilized (Perkin Elmer # AL234 C/F). Briefly, 20,000 BT474 (HER2 positive) breast cancer cells were seeded in 200 µL of complete Hybricare media in 96 well plates. After 4 h, media was aspirated and CID 3117694 (3.125–100 µM) and controls (50 µM marimastat and GI 254023X)[11] were added in serum-free media. Cells were incubated for 48 h at 37 °C with 5% CO2 and under a humidified atmosphere. After incubation, 5 µL of supernatant was transferred into white opaque 384 well plate for HER2 AlphaLISA assay.

[2] = system: CCL2-induced migration of peripheral blood mononuclear cells (PBMC); assay: PBMC migration assay; assay type: cell-based; conditions: statistical significance not reached
Description: For PBMC or primary human neutrophil chemotaxis assays, transwells with 8 or 5 µm pores were filled with 100 µL of cell suspension (1 × 10^6 cells in 100 µL DMEM + 0.2% BSA). Lower wells were filled with stimulus solution (3 nM CCL2 or 10 µg/mL CXCL8 (IL8) in assay buffer (RPMI + 0.2% BSA). After incubation of PBMCs for 2 h or neutrophils for 45 min, migrated cells were quantified in the lower well. For inhibitor studies, cells were pre-incubated in migration medium for 30 min and subsequently subjected to the migration experiment. Migrated neutrophils or PBMCs were quantified by measurement of endogenous glucuronidase activity as described.

[3] = system: shedding of CXCL16 in A549 cells; assay: CXCL16 shedding inhibition (ELISA); assay type: cell-based, human
Description: A549 cells were seeded in 12-well plates and grown to confluency in DMEM supplemented with 10% FBS and 1% P/S. Subsequently, cells were starved serum-free for 4 h, incubated for 1 h with GI 254023X or CID 3117694 (concentrations as indicated) or DMSO (vehicle, 0.1%) and afterwards stimulated with 10 ng/mL TNF and 10 ng/mL IFN for 24 h or left untreated in the presence of inhibitors or DMSO. Supernatants (500 µL) were harvested and centrifuged for 10 min at 16100 g and 4 °C. […] of CXCL16 were measured using the DuoSet human CXCL16 Elisa Kit (R&D systems, Wiesbaden, Germany). Samples were stored at −80 °C and diluted 2-fold after careful thawing. The standard ranged from 0 to 25,000 pg/mL with a detection limit of 391 pg/mL. For detection of soluble syndecan-4, conditioned media (200 µL) were 2-fold diluted in blotting buffer (0.15 M NaCl buffered to pH 4.5 with 50 mM sodium acetate, and with 0.1% Triton X-100), and applied to cationic polyvinylidene difluoride-based membranes (Hybond-N, Amersham Biosciences, Freiburg, Germany) under vacuum in a dot blot apparatus (Amersham Biosciences). The membranes were blocked for 1 h with PBS-T supplemented with 1% bovine serum albumin and 3% milk powder. Human syndecan-4 was detected by incubating membranes overnight at 4 °C with mouse anti-syndecan-4 mAb (0.6 µg/mL) followed by incubation with POD-coupled goat anti-mouse Ab (27 ng/mL in PBS, Jackson Immunoresearch). Chemiluminescence was recorded and quantified using the luminescent image analyzer LAS3000 substrate after addition of ECL advanced substrate (Amersham Biosciences).

HEK293 cells = assay: Cell toxicity study (CellTiter-Glo), HEK293; assay type: cell-based
Description: as §1

T1 sequence (P78536 215-824): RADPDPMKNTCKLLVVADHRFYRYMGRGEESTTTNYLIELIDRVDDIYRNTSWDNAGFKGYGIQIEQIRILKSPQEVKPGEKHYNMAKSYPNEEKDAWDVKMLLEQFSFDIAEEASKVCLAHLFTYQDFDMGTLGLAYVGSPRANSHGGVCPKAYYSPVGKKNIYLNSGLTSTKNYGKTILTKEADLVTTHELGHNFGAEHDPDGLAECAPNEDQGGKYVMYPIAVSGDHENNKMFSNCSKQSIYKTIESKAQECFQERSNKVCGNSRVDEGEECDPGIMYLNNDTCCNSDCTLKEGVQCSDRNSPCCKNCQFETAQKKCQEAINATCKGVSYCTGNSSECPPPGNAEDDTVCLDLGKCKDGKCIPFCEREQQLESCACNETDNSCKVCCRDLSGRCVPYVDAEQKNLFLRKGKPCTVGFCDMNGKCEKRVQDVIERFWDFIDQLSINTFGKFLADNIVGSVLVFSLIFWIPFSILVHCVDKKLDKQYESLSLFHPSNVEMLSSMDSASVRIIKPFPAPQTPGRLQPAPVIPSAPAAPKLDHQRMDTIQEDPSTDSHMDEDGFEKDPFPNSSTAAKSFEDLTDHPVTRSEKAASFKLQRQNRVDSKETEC

COc1cccc(C(=O)NNC(=O)C(=O)Nc2ccc(C)c(Cl)c2)c1 [CID 3117694]
effect on viability of BT474 cells (BT474 cells): did not affect viability | inhibition of ADAM17-mediated hydrolysis of glycosylated substrate (ADAM17): not appreciably inhibited | IC50 [1]: 30 ± 2.5 µM | inhibition of PBMC migration [2]: approximately 50% | inhibition of cytokine-inducible shedding of CXCL16 ([3]; TNF/IFN stimulation 24 h): inhibited cytokine-inducible | inhibition of constitutive shedding of CXCL16 ([3]; unstimulated): not the constitutive shedding | effect on HEK293 cell viability (HEK293 cells; 100 µM): moderate effect | effect on viability of HEK293 cells (HEK293 cells; 72 h): did not affect viability
